# Results from patent US12390461B2, “Modulators of RAR-related orphan receptors (RORs)” (11949098 CANADA INC., priority 2018, dated 2025).
# Test system: Th17 polarization of human peripheral blood mononuclear cells
# Assay: Th17 polarization assay (IL-17A positive cells by flow cytometry)
# Type: cell-based
# Conditions: PBMC, 10 nM compound, 48 hours, triplicates, average of 50% over the listed compounds, p<0.05, read-out: inhibition of the polarization of Th17 cells (percentage of IL17A positive cells relative to total CD4 T cells)
# Text: This assay measures the phenotypic effects of the compounds on the production of interleukin 17A (IL-17A). IL-17A genes are regulated by ROR response elements (ROREs). Compounds that bind to ROR (LBD) can inhibit the binding of RORγ to ROREs DNA site. Compounds can also reduce the effect of the binding which is enhanced by the binding of the co-activator protein.
# Peripheral blood mononuclear cells were isolated by density gradient centrifugation. The principle of this method is that components of the blood have different densities and can be separated according to their relative density. […] This medium is denser than lymphocytes, monocytes, and platelets and they remain about it, but less dense than granulocytes and erythrocytes, which will drop below it. […] Four layers were form, each containing different cell types—the uppermost layer contain containing plasma was removed by pipetting. PBMCs layer and is a characteristically white and cloudy “blanket” was gently removed using a 10 ml pipette and added to warm medium or PBS (1:3) to wash off any remaining platelets and centrifuged at 400×g for 10 minutes. The pelleted cells were counted, and the percentage viability estimated using Trypan blue staining. Cells were frozen for long-term storage.
# To preserve PBMCs at ultra-low temperatures in liquid nitrogen, dimethyl sulfoxide (DMSO) was used as a cryoprotectant to reduce the formation of ice crystals and prevent cell damage. To freeze, freshly isolated PBMCs are resuspended to 5×10^6 cells/mL in freezing medium containing 10% DMSO and 90% fetal bovine serum (FBS) and were placed inside a freezing container at −80° C. overnight to allow gradual and even cooling. The following day, samples were moved to a liquid nitrogen tank for long-term storage.
# 500 ml bottle of RPMI at 4° C. was opened in a biological safety cabinet. Half of the media was transferred to a 500 ml 0.22 um bottle top filter (with the vacuum turned off). 59 ml filtered heat inactivated fetal bovine serum (FBS), 6 ml penicillin-streptomycin solution (100×), 6.0 ml of L-glutamine (100×), 6.0 ml MEM non-essential amino acids 100×, 6.0 ml of sodium pyruvate were added and the volume was brought up to 500 ml by adding the RPMI. Culture media were stored in 4° C. and used for duration of two weeks.
# PBMCs were thawed carefully to avoid loss of cell viability and functionality. Samples are removed from liquid nitrogen and placed on ice, after which they were thawed in a 37° C. water bath. Once there is a small crystal of ice left in the bottom on the tubes, 500 μL warm complete RPMI medium supplemented with 10% FBS, 1% penicillin-streptomycin, and L-glutamine was added dropwise. The cells were then transferred to Falcon tubes containing 10 mL warm medium and centrifuged for 10 minutes at 400×g to wash off the toxic DMSO. This wash step was repeated, and the cell pellet was then resuspended in medium to count as before. Once thawed, PBMCs was rested overnight to remove any apoptotic cell this increases viability and improves functionality and involves incubating the freshly thawed PBMCs in supplemented medium for approximately 18 hours. After this resting period, cells were washed to be used in culture.
# Culture medium was changed every other day for the whole duration. Compounds were added to the polarized cells at day 12 for 48 hours. At measurement day, CD3/CD28 beads were removed and cells were treated with cell stimulation cocktail for 5 hours at the end of 48 hours incubation. Plates were centrifuged at 400×g for 10 minutes. Supernatant was collected for further testing and cells were resuspended in 1×PBS and washed twice at 400×g before staining for surface and intracellular markers.
# The dye was used in 1:1000 concentration in 1×PBS. The cells were incubated in dye solution for 30 minutes in 4° C.
row,Compound,inhibition at 0.01 µM [%]
1,"CSc1ncc(Cl)c(C(=O)Nc2sc3c(c2C(=O)NCc2ccccc2)CCCC3)n1 [Compound 2, N-(3-(benzylcarbamoyl)-4,5,6,7-tetrahydrobenzo[b]thiophen-2-yl)-5-chloro-2-(methylthio)pyrimidine-4-carboxamide]",30 to 70
2,"CSc1ncc(Cl)c(C(=O)Nc2sc3c(c2C(=O)NC2CCS(=O)(=O)C2)CCC(C)C3)n1 (stereo not drawn) [Compound 3, 5-chloro-N-(3-{[(1,1-dioxidotetrahydro-3-thienyl)amino]-carbonyl}-6-methyl-4,5,6,7-tetrahydro-1-benzothien-2-yl)-2-(methylthio)-4-pyrimidine-carboxamide]",30 to 70
3,"CCC1CCc2c(sc(NC(=O)c3ccnn3C)c2C(=O)Nc2ccccc2C)C1 (stereo not drawn) [Compound 4, N-(6-ethyl-3-{[(2-methylphenyl)amino]carbonyl}-4,5,6,7-tetrahydro-1-benzothien-2-yl)-1-methyl-1H-pyrazole-5-carboxamide]",30 to 70
4,"CN1CCN(C(=O)c2c(NC(=O)c3ccccc3F)sc3c2CCC(C(C)(C)C)C3)CC1 (stereo not drawn) [Compound 5, N-{6-tert-butyl-3-[(4-methyl-1-piperazinyl)carbonyl]-4,5,6,7-tetrahydro-1-benzothien-2-yl}-2-fluorobenzamide]",30 to 70
5,"CC1CCc2c(sc(NC(=O)c3ccccc3F)c2C(=O)N2CCN(C)CC2)C1 (stereo not drawn) [Compound 6, 2-fluoro-N-{6-methyl-3-[(4-methyl-1-piperazinyl)carbonyl]-4,5,6,7-tetrahydro-1-benzothien-2-yl}benzamide]",30 to 70
6,"O=C(NCc1ccccc1)c1c(NC(=O)C(F)(F)F)sc2c1CCCC2 [Compound 7, N-benzyl-2-[(trifluoroacetyl)amino]-4,5,6,7-tetrahydro-1-benzothiophene-3-carboxamide]",30 to 70
7,"Cc1ccnc(SCC(=O)Nc2sc3c(c2C(=O)NCc2ccccc2)CCCC3)n1 [Compound 8, N-benzyl-2-({[(4-methyl-2-pyrimidinyl)thio]acetyl}amino)-4,5,6,7-tetrahydro-1-benzothiophene-3-carboxamide]",30 to 70
8,"O=C(CN1CCCCC1)Nc1sc2c(c1C(=O)NCc1ccccc1)CCCC2 [Compound 9, N-benzyl-2-[(1-piperidinylacetyl)amino]-4,5,6,7-tetrahydro-1-benzothiophene-3-carboxamide]",30 to 70
9,"CN1CCN(CC(=O)Nc2sc3c(c2C(=O)NCc2ccccc2)CCCC3)CC1 [Compound 10, N-benzyl-2-{[(4-methyl-1-piperazinyl)acetyl]amino}-4,5,6,7-tetrahydro-1-benzothiophene-3-carboxamide]",30 to 70
10,"CC1CCN(CC(=O)Nc2sc3c(c2C(=O)NCc2ccccc2)CCCC3)CC1 [Compound 11, N-benzyl-2-{[(4-methyl-1-piperidinyl)acetyl]amino}-4,5,6,7-tetrahydro-1-benzothiophene-3-carboxamide]",30 to 70
11,"CC1CCCN1C(=O)c1c(NC(=O)c2cccnc2)sc2c1CCCC2 (stereo not drawn) [Compound 12, N-(3-(2-methylpyrrolidine-1-carbonyl)-4,5,6,7-tetrahydro-benzo[b]thiophen-2-yl)nicotinamide]",30 to 70
12,"C[C@@H]1CCN(C(=O)c2c(NC(=O)c3cccnc3)sc3c2CCCC3)[C@H](C)C1 [Compound 13, N-(3-((2R,4R)-2,4-dimethylpiperidine-1-carbonyl)-4,5,6,7-tetrahydrobenzo[b]thiophen-2-yl)nicotinamide]",30 to 70
13,"CCC1CCN(C(=O)c2c(NC(=O)c3cccnc3)sc3c2CCCC3)C1 (stereo not drawn) [Compound 15, N-(3-(3-ethylpyrrolidine-1-carbonyl)-4,5,6,7-tetrahydro-benzo[b]thiophen-2-yl)nicotinamide]",30 to 70
14,"Cn1ccnc1SCC(=O)Nc1sc2c(c1C(=O)NCc1ccccc1)CCCC2 [Compound 16, N-benzyl-2-(2-((1-methyl-1H-imidazol-2-yl)thio)acetamido)-4,5,6,7-tetrahydrobenzo[b]thiophene-3-carboxamide]",30 to 70
15,"Cn1cnc(CNC(=O)c2c(NC(=O)c3cccnc3)sc3c2CCCC3)n1 [Compound 19, N-(3-(((1-methyl-1H-1,2,4-triazol-3-yl)methyl)carbamoyl)-4,5,6,7-tetrahydrobenzo[b]thiophen-2-yl)nicotinamide]",30 to 70
16,"C[C@@H](C#N)NC(=O)c1c(NC(=O)c2cccnc2)sc2c1CCCC2 [Compound 20, (S)—N-(3-((1-cyanoethyl)carbamoyl)-4,5,6,7-tetrahydro-benzo[b]thiophen-2-yl)nicotinamide]",30 to 70
17,"O=C(Nc1sc2c(c1C(=O)c1ccccc1)CCCC2)c1cnccn1 [Compound 22, N-(3-benzoyl-4,5,6,7-tetrahydrobenzo[b]thiophen-2-yl)pyrazine-2-carboxamide]",30 to 70
18,"Cc1cnc(S(C)(=O)=O)nc1C(=O)Nc1sc2c(c1C(=O)c1ccccc1)CCCC2 [Compound 23, N-(3-benzoyl-4,5,6,7-tetrahydrobenzo[b]thiophen-2-yl)-5-methyl-2-(methylsulfonyl)pyrimidine-4-carboxamide]",30 to 70
